Data from patent US11807644B2 (PMV Pharmaceuticals, Inc., priority 2020, dated 2023).

molecular target: T1, recombinant His-tag Y220C p53 DBD protein (Homo sapiens, UniProt P04637, Y220C); assay: In vitro DNA binding activity assay (TR-FRET): binding of His-tag Y220C p53 DBD to biotin-labeled consensus DNA; assay type: biochemical; details: SC150 = concentration to increase DNA binding by […], His-tag Y220C p53 DBD, biotin-labeled consensus DNA
T1 construct: recombinant His-tag Y220C p53 DBD protein (amino acids #˜94-312)

| Y220C SC150 (μM) | SMILES |
| --- | --- |
| ** (** = 0.1 μM ≤ SC150 < 0.5 μM) | CN1CC[C@@H](Nc2cccc3c2cc(-c2noc(CNc4ccnn4C(C)(C)C)n2)n3CC(F)(F)F)[C@@H](F)C1 [Compound 396B, 2-(5-{[(1-tert-butyl-1H-pyrazol-5-yl)amino]methyl}-1,2,4-oxadiazol-3-yl)-N-[(3S,4R)-3-fluoro-1-methylpiperidin-4-yl]-1-(2,2,2-trifluoroethyl)-1H-indol-4-amine] |
| * (* = 0 μM ≤ SC150 < 0.1 μM) | Cn1ccc(C(=O)NCc2nc(-c3cc4c(N[C@@H]5CCN(C(C)(C)C)C[C@@H]5F)cccc4n3CC(F)(F)F)no2)c1 [Compound 397B, N-{[3-(4-{[(3S,4R)-1-tert-butyl-3-fluoropiperidin-4-yl]amino}-1-(2,2,2-trifluoroethyl)-1H-indol-2-yl)-1,2,4-oxadiazol-5-yl]methyl}-1-methyl-1H-pyrrole-3-carboxamide] |
| * (* = 0 μM ≤ SC150 < 0.1 μM) | Cn1ccc(C(=O)NCc2nc(-c3cc4c(N[C@H]5CCN(C(C)(C)C)C[C@H]5F)cccc4n3CC(F)(F)F)no2)c1 [Compound 398B, N-{[3-(4-{[(3R,4S)-1-tert-butyl-3-fluoropiperidin-4-yl]amino}-1-(2,2,2-trifluoroethyl)-1H-indol-2-yl)-1,2,4-oxadiazol-5-yl]methyl}-1-methyl-1H-pyrrole-3-carboxamide] |
| * (* = 0 μM ≤ SC150 < 0.1 μM) | CN1CC[C@@H](Nc2cccc3c2cc(-c2noc(CNC(=O)c4ccn(C5(C)CCOC5)c4)n2)n3CC(F)(F)F)[C@@H](F)C1 (stereo partly drawn) [Compound 401B, N-{[3-(4-{[(3S,4R)-3-fluoro-1-methylpiperidin-4-yl]amino}-1-(2,2,2-trifluoroethyl)-1H-indol-2-yl)-1,2,4-oxadiazol-5-yl]methyl}-1-(3-methyloxolan-3-yl)-1H-pyrrole-3-carboxamide] |
| * (* = 0 μM ≤ SC150 < 0.1 μM) | CC(C)(C)N1CC[C@@H](Nc2cccc3c2cc(-c2noc(CNC(=O)c4cnn(C(C)(C)C)c4)n2)n3CC(F)(F)F)[C@H](F)C1 [Compound 402B, 1-tert-butyl-N-{[3-(4-{[(3R,4R)-1-tert-butyl-3-fluoropiperidin-4-yl]amino}-1-(2,2,2-trifluoroethyl)-1H-indol-2-yl)-1,2,4-oxadiazol-5-yl]methyl}-1H-pyrazole-4-carboxamide] |
| * (* = 0 μM ≤ SC150 < 0.1 μM) | CN1CC[C@H](F)[C@H](Nc2cccc3c2cc(-c2noc(CNC(=O)c4ccn(C5(C)CCOCC5)c4)n2)n3CC(F)(F)F)C1 [Compound 403B, N-{[3-(4-{[(3R,4S)-4-fluoro-1-methylpiperidin-3-yl]amino}-1-(2,2,2-trifluoroethyl)-1H-indol-2-yl)-1,2,4-oxadiazol-5-yl]methyl}-1-(4-methyloxan-4-yl)-1H-pyrrole-3-carboxamide] |
| * (* = 0 μM ≤ SC150 < 0.1 μM) | CN1CC[C@@H](Nc2cccc3c2cc(-c2noc(CNC(=O)c4cnn(C5(C)CCOCC5)c4)n2)n3CC(F)(F)F)[C@@H](F)C1 [Compound 404B, N-{[3-(4-{[(3S,4R)-3-fluoro-1-methylpiperidin-4-yl]amino}-1-(2,2,2-trifluoroethyl)-1H-indol-2-yl)-1,2,4-oxadiazol-5-yl]methyl}-1-(4-methyloxan-4-yl)-1H-pyrazole-4-carboxamide] |
| * (* = 0 μM ≤ SC150 < 0.1 μM) | Cn1cc(C(=O)NCc2nc(-c3cc4c(N[C@@H]5CCN(C(C)(C)C)C[C@@H]5F)cccc4n3CC(F)(F)F)no2)cn1 [Compound 405B, N-{[3-(4-{[(3S,4R)-1-tert-butyl-3-fluoropiperidin-4-yl]amino}-1-(2,2,2-trifluoroethyl)-1H-indol-2-yl)-1,2,4-oxadiazol-5-yl]methyl}-1-methyl-1H-pyrazole-4-carboxamide] |
| * (* = 0 μM ≤ SC150 < 0.1 μM) | Cn1cc(C(=O)NCc2nc(-c3cc4c(N[C@H]5CCN(C(C)(C)C)C[C@H]5F)cccc4n3CC(F)(F)F)no2)cn1 [Compound 406B, N-{[3-(4-{[(3R,4S)-1-tert-butyl-3-fluoropiperidin-4-yl]amino}-1-(2,2,2-trifluoroethyl)-1H-indol-2-yl)-1,2,4-oxadiazol-5-yl]methyl}-1-methyl-1H-pyrazole-4-carboxamide] |
| * (* = 0 μM ≤ SC150 < 0.1 μM) | CN1CC[C@H](F)[C@H](Nc2cccc3c2cc(-c2noc(CNC(=O)c4cnn(C(C)(C)C)c4)n2)n3CC(F)(F)F)C1 [Compound 408B, 1-tert-butyl-N-{[3-(4-{[(3R,4S)-4-fluoro-1-methylpiperidin-3-yl]amino}-1-(2,2,2-trifluoroethyl)-1H-indol-2-yl)-1,2,4-oxadiazol-5-yl]methyl}-1H-pyrazole-4-carboxamide] |
| * (* = 0 μM ≤ SC150 < 0.1 μM) | CN1CC[C@@H](F)[C@@H](Nc2cccc3c2cc(-c2noc(CNC(=O)c4cnn(C(C)(C)C)c4)n2)n3CC(F)(F)F)C1 [Compound 409B, Tert-butyl-N-[[3-[4-[[(3S,4R)-4-fluoro-1-methyl-3-piperidyl]amino]-1-(2,2,2-trifluoroethyl)indol-2-yl]-1,2,4-oxadiazol-5-yl]methyl]pyrazole-4-carboxamide] |
| * (* = 0 μM ≤ SC150 < 0.1 μM) | COCC(C)(C)n1cc(C(=O)NCc2nc(-c3cc4c(N[C@@H]5CCN(C(C)(C)C)C[C@@H]5F)cccc4n3CC(F)(F)F)no2)cn1 [Compound 412B, N-{[3-(4-{[(3S,4R)-1-tert-butyl-3-fluoropiperidin-4-yl]amino}-1-(2,2,2-trifluoroethyl)-1H-indol-2-yl)-1,2,4-oxadiazol-5-yl]methyl}-1-(1-methoxy-2-methylpropan-2-yl)-1H-pyrazole-4-carboxamide] |
| * (* = 0 μM ≤ SC150 < 0.1 μM) | COCC(C)(C)n1cc(C(=O)NCc2nc(-c3cc4c(N[C@H]5CCN(C(C)(C)C)C[C@H]5F)cccc4n3CC(F)(F)F)no2)cn1 [Compound 413B, N-{[3-(4-{[(3R,4S)-1-tert-butyl-3-fluoropiperidin-4-yl]amino}-1-(2,2,2-trifluoroethyl)-1H-indol-2-yl)-1,2,4-oxadiazol-5-yl]methyl}-1-(1-methoxy-2-methylpropan-2-yl)-1H-pyrazole-4-carboxamide] |
| * (* = 0 μM ≤ SC150 < 0.1 μM) | CN1CC[C@H](F)[C@H](Nc2cccc3c2cc(-c2noc(CNC(=O)c4ccn(C(C)(C)C)c4)n2)n3CC(F)(F)F)C1 [Compound 414B, 1-tert-butyl-N-{[3-(4-{[(3R,4S)-4-fluoro-1-methylpiperidin-3-yl]amino}-1-(2,2,2-trifluoroethyl)-1H-indol-2-yl)-1,2,4-oxadiazol-5-yl]methyl}-1H-pyrrole-3-carboxamide] |
| * (* = 0 μM ≤ SC150 < 0.1 μM) | CN1CC[C@@H](F)[C@@H](Nc2cccc3c2cc(-c2noc(CNC(=O)c4ccn(C(C)(C)C)c4)n2)n3CC(F)(F)F)C1 [Compound 415B, 1-tert-butyl-N-{[3-(4-{[(3S,4R)-4-fluoro-1-methylpiperidin-3-yl]amino}-1-(2,2,2-trifluoroethyl)-1H-indol-2-yl)-1,2,4-oxadiazol-5-yl]methyl}-1H-pyrrole-3-carboxamide] |
| * (* = 0 μM ≤ SC150 < 0.1 μM) | COCC(C)(C)n1ccc(C(=O)NCc2nc(-c3cc4c(N[C@@H]5CN(C)CC[C@@H]5F)cccc4n3CC(F)(F)F)no2)c1 [Compound 417B, N-{[3-(4-{[(3R,4S)-4-fluoro-1-methylpiperidin-3-yl]amino}-1-(2,2,2-trifluoroethyl)-1H-indol-2-yl)-1,2,4-oxadiazol-5-yl]methyl}-1-(1-methoxy-2-methylpropan-2-yl)-1H-pyrrole-3-carboxamide] |
| * (* = 0 μM ≤ SC150 < 0.1 μM) | COCC(C)(C)n1ccc(C(=O)NCc2nc(-c3cc4c(N[C@H]5CN(C)CC[C@H]5F)cccc4n3CC(F)(F)F)no2)c1 [Compound 418B, N-{[3-(4-{[(3S,4R)-4-fluoro-1-methylpiperidin-3-yl]amino}-1-(2,2,2-trifluoroethyl)-1H-indol-2-yl)-1,2,4-oxadiazol-5-yl]methyl}-1-(1-methoxy-2-methylpropan-2-yl)-1H-pyrrole-3-carboxamide] |
| * (* = 0 μM ≤ SC150 < 0.1 μM) | CN1CC[C@@H](F)[C@@H](Nc2cccc3c2cc(-c2noc(CNC(=O)c4ccn(C5(C)CCOCC5)c4)n2)n3CC(F)(F)F)C1 [Compound 419B, N-{[3-(4-{[(3S,4R)-4-fluoro-1-methylpiperidin-3-yl]amino}-1-(2,2,2-trifluoroethyl)-1H-indol-2-yl)-1,2,4-oxadiazol-5-yl]methyl}-1-(4-methyloxan-4-yl)-1H-pyrrole-3-carboxamide] |
| * (* = 0 μM ≤ SC150 < 0.1 μM) | CC1(n2ccc(C(=O)NCc3nc(-c4cc5c(N[C@@H]6CNCC[C@@H]6F)cccc5n4CC(F)(F)F)no3)c2)CCOCC1 [Compound 420B, N-{[3-(4-{[(3R,4S)-4-fluoropiperidin-3-yl]amino}-1-(2,2,2-trifluoroethyl)-1H-indol-2-yl)-1,2,4-oxadiazol-5-yl]methyl}-1-(4-methyloxan-4-yl)-1H-pyrrole-3-carboxamide] |
| * (* = 0 μM ≤ SC150 < 0.1 μM) | CC1(n2ccc(C(=O)NCc3nc(-c4cc5c(N[C@H]6CNCC[C@H]6F)cccc5n4CC(F)(F)F)no3)c2)CCOCC1 [Compound 421B, N-{[3-(4-{[(3S,4R)-4-fluoropiperidin-3-yl]amino}-1-(2,2,2-trifluoroethyl)-1H-indol-2-yl)-1,2,4-oxadiazol-5-yl]methyl}-1-(4-methyloxan-4-yl)-1H-pyrrole-3-carboxamide] |
| * (* = 0 μM ≤ SC150 < 0.1 μM) | CN1CC[C@@H](Nc2cccc3c2cc(-c2noc(CNC(=O)c4ccc(C(C)(C)C)s4)n2)n3CC(F)(F)F)[C@@H](F)C1 [Compound 422B, 5-tert-butyl-N-[[3-[4-[[(3S,4R)-3-fluoro-1-methyl-4-piperidyl]amino]-1-(2,2,2-trifluoroethyl)indol-2-yl]-1,2,4-oxadiazol-5-yl]methyl]thiophene-2-carboxamide] |
